According to patent US4923885A, “5-amino-1-(4-naphthoylbenzyl)-1,2,3-triazole-4-carboxamides and analogs as antiproliferative agents” (Merck & Co., Inc., priority 1988, dated 1990):
Converted amounts (≈) assume the structure as drawn.

Experiments:
[1] = tested on: Normal Human Epidermal Keratinocytes (NHEK); assay: Proliferation assay vs Normal Human Epidermal Keratinocytes (NHEK growth inhibition); assay type: cell-based; conditions: Dulbecco's modified Eagle's medium, 10% fetal calf serum, 37° C., 5% CO2, Giemsa, 650 nm, read-out: ED50 NHEK
Protocol: In these experiments, NHEK's were cultured in Dulbecco's modified Eagle's medium with 10% fetal calf serum at 37° C., 5% CO2. Each well of a 96 well plate was seeded with 2000 cells in 200 μl of each drug dilution in duplicate. A plate was stopped and fixed for each time point, stained with Giemsa and then read in a Titertek plate reader at 650 nm, and the absorbances were calibrated with known cell numbers on control plates. NHEK's were obtained from Clonetics Corporation at the secondary stage.

[2] = cited from earlier work; for side effects: psoriasis treatment; for clearing lesions: psoriasis, experimental use as chemotherapeutic agents; for effectiveness in treating psoriasis: inhibitors of purine or pyrimidine nucleotide biosynthesis
[3] = tested on: nucleotide biosynthesis in normal human epidermal keratinocyte cells; assay: inhibition of nucleotide biosynthesis in normal human epidermal keratinocyte cells in vitro; assay type: cell-based; set-up: dose or concentration left out as unconfirmed
From the text: It has been known that it is the hyperproliferation of these cells in humans which causes psoriasis.

SMILES | IC50 [1] [µg/mL] | side effects [2] | effectiveness in treating psoriasis [2] | further results
NC(=O)c1nnn(Cc2cc(Cl)c(C(=O)c3ccc(Cl)cc3)c(Cl)c2)c1N [Reference compound] | 0.5 to 1 (≈ 1.18 to 2.35 µM) | – | – | –
COc1c(C)c2c(c(O)c1C/C=C(\C)CCC(=O)O)C(=O)OC2 [Mycophenolic acid] | – | unacceptable side effects | – | effect on psoriasis ([2]; mycophenolic acid given orally): controls psoriasis by causing remission; clearing lesions [2]: success in clearing lesions
NC(=O)c1nnn(Cc2cc(Cl)c(C(=O)c3ccc(Cl)c4ccccc34)c(Cl)c2)c1N [Compound A, 5-amino-l-(4-(4-chloronaphthoyl)-3,5-dichlorobenzyl)-1,2,3-triazole-4-carboxamide] | 0.08 (≈ 0.169 µM) | – | – | efficacy in inhibiting nucleotide biosynthesis [3]: inhibiting nucleotide biosynthesis
O=C(O)C[C@H](NC(=O)CP(=O)(O)O)C(=O)O [N-phosphonacetyl-L-aspartate] | – | unacceptable side effects due to toxicity | effective in treating the disease | –
O=c1[nH]cc(F)c(=O)[nH]1 [fluorouracil] | – | unacceptable side effects due to toxicity | effective in treating the disease | –
NC(=O)c1nnn(Cc2cc(Cl)c(C(=O)c3cccc4ccccc34)c(Cl)c2)c1N [Cl, Cl, CO, α-Naphth, 5-Amino-l-[4-(l-naphthoyl)-3,5-dichlorobenzyl]-l,2,3-triazole-4-carboxamide] | 0.3 (≈ 0.681 µM) | – | – | –
NC(=O)c1nnn(Cc2cc(Cl)c(C(=O)c3ccc4ccccc4c3)c(Cl)c2)c1N [Cl, Cl, CO, β-Naphth, 5-Amino-1-[4-(2-naphthoyl)-3,5-dichlorobenzyl]-1,2,3-triazole-4-carboxamide] | 1 (≈ 2.27 µM) | – | – | –
NC(=O)c1nnn(Cc2cc(Cl)c(Oc3ccc(Cl)c4ccccc34)c(Cl)c2)c1N [Cl, Cl, O, α-Naphth-4-Cl, 5-Amino-l-[4-[(4-chloro-l-naphthalene)oxy]-3,5dichlorobenzyl]-1,2,3-triazole-4-carboxamide] | 0.3 (≈ 0.648 µM) | – | – | –
Nc1nc2nc[nH]c2c(=S)[nH]1 [thioguanine] | – | unacceptable side effects due to toxicity | effective in treating the disease | clearing lesions [2]: success in clearing lesions
NC(=O)c1nnn(Cc2cc(Cl)c(Cc3ccc(Cl)c4ccccc34)c(Cl)c2)c1N [Cl, Cl, CH2, α-Naphth-4-Cl, 5-Amino-l-[4-[(4-chloro-l-naphthalene)methyl]-3,5dichlorobenzyl]-1,2,3-triazole-4-carboxamide] | 0.3 (≈ 0.651 µM) | – | – | –
CN(Cc1cnc2nc(N)nc(N)c2n1)c1ccc(C(=O)N[C@@H](CCC(=O)O)C(=O)O)cc1 [methotrexate] | – | unacceptable side effects due to toxicity | effective in treating the disease | –
